Laboratory results reported in ChEMBL document CHEMBL5614424, “Natural Product-Inspired Discovery of Naphthoquinone-Furo-Piperidine Derivatives as Novel STAT3 Inhibitors for the Treatment of Triple-Negative Breast Cancer” (J Med Chem, 2024).
The source made the active and inactive calls. The rule behind the calls is not given here.

Key:
[1] = test system: MDA-MB-231; assay: Antiproliferative activity against human MDA-MB-231 cells assessed as cell viability incubated for 48 hrs measured after additional incubation with MTT; type: functional, cell-based; settings: MDA-MB-231, 48 h
[2] = test system: MDA-MB-468; assay: Antiproliferative activity against human MDA-MB-468 cells assessed as cell viability incubated for 48 hrs measured after additional incubation with MTT; type: functional, cell-based; settings: MDA-MB-468, 48 h
[3] = test system: MDA-MB-468; assay: Decrease in STAT3 level in human MDA-MB-468 cell at 3 uM measured after 24 hrs by Western blot analysis; type: functional, cell-based
[4] = Antiproliferative activity against human MCF-10A cells assessed as cell viability incubated for 48 hrs measured after additional incubation with MTT; type: toxicity, cell-based
[5] = test system: L02; assay: Antiproliferative activity against human L02 cells assessed as cell viability incubated for 48 hrs measured after additional incubation with MTT; type: functional, cell-based; settings: L02, 48 h
[6] = target: Signal transducer and activator of transcription 3 (Homo sapiens) (UniProt P40763); assay: Suppression of STAT3 activation in human MDA-MB-468 cell assessed as decrease in phosphorylated STAT3 (p-STAT3 Tyr705) level at 3 uM measured after 24 hrs by Western blot analysis; type: cell-based
[7] = test system: MDA-MB-231; assay: Decrease in STAT3 level in human MDA-MB-231 cell at 3 uM measured after 24 hrs by Western blot analysis; type: functional, cell-based
[8] = target: Signal transducer and activator of transcription 3 (Homo sapiens) (UniProt P40763); assay: Suppression of STAT3 activation in human MDA-MB-231 cell assessed as decrease in phosphorylated STAT3 (p-STAT3 Tyr705) level at 3 uM measured after 24 hrs by Western blot analysis; type: cell-based

Chain of Signal transducer and activator of transcription 3 (Homo sapiens) (P40763 whole entry): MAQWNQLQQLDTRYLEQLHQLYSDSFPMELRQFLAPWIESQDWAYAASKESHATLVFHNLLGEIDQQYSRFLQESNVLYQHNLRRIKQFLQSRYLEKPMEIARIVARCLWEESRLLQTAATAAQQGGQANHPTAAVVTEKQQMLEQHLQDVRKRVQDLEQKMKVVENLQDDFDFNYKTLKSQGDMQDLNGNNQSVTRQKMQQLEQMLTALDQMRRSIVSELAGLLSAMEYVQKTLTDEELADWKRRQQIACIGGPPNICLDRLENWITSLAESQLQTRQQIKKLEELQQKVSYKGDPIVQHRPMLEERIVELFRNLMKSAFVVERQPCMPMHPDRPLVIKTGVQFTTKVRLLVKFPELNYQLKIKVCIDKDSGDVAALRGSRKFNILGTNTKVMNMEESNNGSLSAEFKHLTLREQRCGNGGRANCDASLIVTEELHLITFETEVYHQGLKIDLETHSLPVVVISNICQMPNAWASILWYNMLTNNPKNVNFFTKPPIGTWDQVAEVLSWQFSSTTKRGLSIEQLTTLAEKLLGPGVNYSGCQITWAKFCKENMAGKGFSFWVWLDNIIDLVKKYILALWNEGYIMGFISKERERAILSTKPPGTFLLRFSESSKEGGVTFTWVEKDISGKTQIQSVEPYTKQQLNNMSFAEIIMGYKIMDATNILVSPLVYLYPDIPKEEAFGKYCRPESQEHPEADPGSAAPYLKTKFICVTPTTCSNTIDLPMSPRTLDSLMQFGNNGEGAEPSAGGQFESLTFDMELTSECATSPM

| SMILES | IC50 [1] [µM] | IC50 [2] [µM] | Activity [3] | IC50 at 48 h [4] [µM] | IC50 [5] [µM] | inhibition [6] | Activity [7] | inhibition [8] |
| --- | --- | --- | --- | --- | --- | --- | --- | --- |
| CNC(=O)[C@H](Cc1ccc(O)cc1)N1CCc2c(oc3c2C(=O)C(=O)c2ccccc2-3)C1 | 7.26 | 10.4 |  |  |  |  |  |  |
| CNC(=O)CCN1CCc2c(oc3c2C(=O)C(=O)c2ccccc2-3)C1 | 4.5 | 3.6 | Active | 11 | 12.5 | Active | Active | Active |
| COC(=O)CCN1CCc2c(oc3c2C(=O)C(=O)c2ccccc2-3)C1 | 5.72 | 4.13 |  | 4.55 | 8.51 |  |  |  |
| CC(=O)N1CCc2c(oc3c2C(=O)C(=O)c2ccccc2-3)C1 | 4.57 | 3.89 |  | 17.8 | 16.6 | Active |  | Active |
| COC(=O)[C@H](Cc1ccc(O)cc1)N1CCc2c(oc3c2C(=O)C(=O)c2ccccc2-3)C1 | 7.26 | 14.3 |  |  |  |  |  |  |
| CNC(=O)[C@H](Cc1ccccc1)N1CCc2c(oc3c2C(=O)C(=O)c2ccccc2-3)C1 | 8.12 | 8.05 |  |  |  |  |  |  |
| O=C1C(=O)c2c(oc3c2CCN(C(=O)c2ccc(C(F)(F)F)cc2)C3)-c2ccccc21 | 14.7 | 14.7 |  |  |  |  |  |  |
| CNC(=O)[C@H](CC(C)C)N1CCc2c(oc3c2C(=O)C(=O)c2ccccc2-3)C1 | 7.99 | 7.36 |  |  |  |  |  |  |
| O=C1C(=O)c2c(oc3c2CCN([C@H](CO)Cc2ccccc2)C3)-c2ccccc21 | 9.97 | > 10 |  |  |  |  |  |  |
| CNC(=O)[C@H](C)N1CCc2c(oc3c2C(=O)C(=O)c2ccccc2-3)C1 | 4.14 | 6.41 | Active | 17.6 | > 20 | Active | Active | Active |
| COC(=O)[C@H](CC(C)C)N1CCc2c(oc3c2C(=O)C(=O)c2ccccc2-3)C1 | > 20 | > 20 |  |  |  |  |  |  |
| CC(=O)c1cc2c(o1)C(=O)C(=O)c1ccccc1-2 | 1.43 | 2.51 |  | 6.23 | 7.25 |  |  |  |
| COC(=O)CN1CCc2c(oc3c2C(=O)C(=O)c2ccccc2-3)C1 | 2.5 | 2.42 |  | 4.89 | 5.46 |  |  |  |
| O=C1C(=O)c2c(oc3c2CCN(C(=O)N2CCOCC2)C3)-c2ccccc21 | 6.43 | 5.41 |  | 16.8 | > 20 |  |  |  |
| O=C1C(=O)c2c(oc3c2CCN(C(=O)c2cccnc2)C3)-c2ccccc21 | 5.86 | 5.89 |  | 9.35 | 13.3 |  |  |  |
| O=C1C(=O)c2c(oc3c2CCN(C(=O)c2cccs2)C3)-c2ccccc21 | > 20 | 12.9 |  |  |  |  |  |  |
| O=C1C(=O)c2c(oc3c2CCN(CCCO)C3)-c2ccccc21 | 2.3 | 2.32 | Active | 11.1 | 15.5 | Active | Active | Active |
| O=C1C(=O)c2c(oc3c2CCN(C(=O)c2ccc(F)cc2)C3)-c2ccccc21 | 10.9 | 12 |  |  |  |  |  |  |
| CNC(=O)CCCN1CCc2c(oc3c2C(=O)C(=O)c2ccccc2-3)C1 | 7.45 | 9.45 |  |  |  |  |  |  |
| O=C1C(=O)c2c(oc3c2CCN(C(=O)c2ccc(Cl)cc2)C3)-c2ccccc21 | 13 | 10.7 |  |  |  |  |  |  |

| SMILES | IC50 [1] [µM] | IC50 [2] [µM] | Activity [3] | IC50 at 48 h [4] [µM] | IC50 [5] [µM] | inhibition [6] | Activity [7] | inhibition [8] |
| --- | --- | --- | --- | --- | --- | --- | --- | --- |
| C[C@H]1COC2=C1C(=O)C(=O)c1c2ccc2c1CCCC2(C)C [CRYPTOTANSHINONE] | > 20 | > 20 |  | > 20 | > 20 |  |  |  |
| COC(=O)[C@H](Cc1ccccc1)N1CCc2c(oc3c2C(=O)C(=O)c2ccccc2-3)C1 | 8.26 | 11.4 |  |  |  |  |  |  |
| CN(C)c1ccc(C(=O)N2CCc3c(oc4c3C(=O)C(=O)c3ccccc3-4)C2)cc1 | > 20 | > 20 |  | > 20 | > 20 |  |  |  |
| CN1CCN(C(=O)N2CCc3c(oc4c3C(=O)C(=O)c3ccccc3-4)C2)CC1 | 6.08 | 5.84 |  |  |  |  |  |  |
| O=C1C(=O)c2c(oc3c2CCNC3)-c2ccccc21 | 7.11 | 9.23 |  |  |  |  |  |  |
| COC(=O)CCCN1CCc2c(oc3c2C(=O)C(=O)c2ccccc2-3)C1 | 6.89 | 9.12 |  |  |  |  |  |  |
| COC(=O)CC[C@@H](C(=O)OC)N1CCc2c(oc3c2C(=O)C(=O)c2ccccc2-3)C1 | 12.7 | 12.2 |  |  |  |  |  |  |
| O=C1C(=O)c2c(oc3c2CCN(CCCCO)C3)-c2ccccc21 | 6.41 | 9.48 |  |  |  |  |  |  |
| CN(C)C(=O)N1CCc2c(oc3c2C(=O)C(=O)c2ccccc2-3)C1 | 4 | 2.35 | Active | > 20 | > 20 | Active | Active | Active |
| COC(=O)[C@H](C)N1CCc2c(oc3c2C(=O)C(=O)c2ccccc2-3)C1 | 3.14 | 2.36 |  | 18.2 |  | inactive |  | inactive |
| C[C@@H](CO)N1CCc2c(oc3c2C(=O)C(=O)c2ccccc2-3)C1 | 3.41 | 5.42 |  | 7.98 | 7.87 | Active |  | Active |
| O=C1C(=O)c2c(oc3c2CCN([C@H](CO)Cc2ccc(O)cc2)C3)-c2ccccc21 | 13.6 | 13 |  |  |  |  |  |  |
| O=C1C(=O)c2c(oc3c2CCN(C(=O)c2ccco2)C3)-c2ccccc21 | 12.4 | 12.9 |  |  |  |  |  |  |
| O=C1C(=O)c2c(oc3c2CCN(C(=O)c2cccc(C(F)(F)F)c2)C3)-c2ccccc21 | 12.5 | > 20 |  |  |  |  |  |  |
| O=C1C(=O)c2c(oc3c2CCN(C(=O)c2ccccc2)C3)-c2ccccc21 | 5.71 | 6.86 |  | 19.2 | > 20 |  |  |  |
| Cc1ccc(C(=O)N2CCc3c(oc4c3C(=O)C(=O)c3ccccc3-4)C2)cc1 | 14.2 | 16.9 |  |  |  |  |  |  |
| COc1ccc(C(=O)N2CCc3c(oc4c3C(=O)C(=O)c3ccccc3-4)C2)cc1OC | 4.59 | 5.82 |  | 7.96 | 7.43 |  |  |  |
| CNC(=O)CN1CCc2c(oc3c2C(=O)C(=O)c2ccccc2-3)C1 | 6.51 | 4.78 |  |  |  |  |  |  |
| COc1ccc(C(=O)N2CCc3c(oc4c3C(=O)C(=O)c3ccccc3-4)C2)cc1 | 17.3 | > 20 |  |  |  |  |  |  |
| N#Cc1ccc(C(=O)N2CCc3c(oc4c3C(=O)C(=O)c3ccccc3-4)C2)cc1 | 14.8 | 12.6 |  |  |  |  |  |  |
